“Also recorded” adds a separate entry of the source. Read-outs that look alike come from different tables or passages of the source. Blank lines part the entries; values can stand above or below the compound they belong to.
Experiments:
CYP3A4 = molecular target: T1, CYP3A4 (Homo sapiens, UniProt P08684); assay: Addition of CYP inhibitors: metabolism of Compound I; assay type: in vivo; conditions: observed in Phase I clinical trials
T1 construct: from tissue; host or cells: human subjects in vivo (endogenous enzyme)
T1 sequence (P08684 whole entry): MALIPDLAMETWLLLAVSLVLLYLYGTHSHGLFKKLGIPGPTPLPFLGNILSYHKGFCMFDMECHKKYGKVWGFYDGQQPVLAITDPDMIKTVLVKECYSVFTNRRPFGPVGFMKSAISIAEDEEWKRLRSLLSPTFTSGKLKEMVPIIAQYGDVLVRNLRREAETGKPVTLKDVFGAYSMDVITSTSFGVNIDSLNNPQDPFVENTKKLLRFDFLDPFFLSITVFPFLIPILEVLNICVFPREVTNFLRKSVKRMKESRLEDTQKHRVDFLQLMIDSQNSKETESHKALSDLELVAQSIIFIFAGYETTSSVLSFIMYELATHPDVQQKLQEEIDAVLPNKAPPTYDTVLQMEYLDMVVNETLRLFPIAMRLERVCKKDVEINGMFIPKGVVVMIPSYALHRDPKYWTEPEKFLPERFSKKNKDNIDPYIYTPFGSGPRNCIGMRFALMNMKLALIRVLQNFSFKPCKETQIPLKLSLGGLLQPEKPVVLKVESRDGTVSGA

[1] = Phase 1 Part A: single ascending dose PK of Compound I (75 mg HME tablet) in healthy subjects; assay type: in vivo, human; conditions: for AUC(0-t) / AUC(0-inf) / Cmax / half-life / Vd/F / CL/F / t1/2: geometric mean (CV %); for Vd/F: read-out: Vz/F; for Tmax: median (minimum-maximum)
Experimental: The 75 mg tablet formulation (described in Table 4) was made using the hot melt extrusion (HME) process described in this disclosure. This 75 mg tablet was used in human clinical studies (single-dose study in healthy volunteers) and (repeat-dose study in cancer patients). […] Following repeat dosing, the steady state exposure at the highest dose evaluated (900 mg BID), AUCt=68700 ng·hr/mL, approached the target efficacious exposure (Table 7).
(§1) A total of 40 adult subjects with a mean age of 37 years were enrolled. Part A enrolled subjects into four single dose cohorts of Compound I ranging from 150 to 900 mg, and the PK data were evaluated to select the most appropriate dose level to use in Part B (900 mg). […] All doses of each drug were administered in the fasted state. This study used an amorphous solid dispersion formulation of Compound I produced with a hot-melt extrusion (HME) process.

[2] = Phase 1 Part B: effect of CYP3A4 inhibitor cobicistat on PK of Compound I (HME) in healthy subjects; assay type: in vivo, human
Experimental: as §1

cytochrome P450 enzyme = cytochrome P450 enzyme (Homo sapiens, UniProt P08684); assay: CYP reaction phenotyping analysis; assay type: in vitro ADME
Sequence of cytochrome P450 enzyme (P08684 whole entry): as above

[3] = Phase 1 Part B: effect of CYP3A4 inhibitor cobicistat on PK of Compound I (HME) in healthy subjects; assay type: in vivo, human; remark: listed apart in the source
[4] = human, in vivo, oral, single dose 150 mg, 75 mg HME tablet, fasted, N = 6
[5] = human, in vivo, oral, single dose 300 mg, 75 mg HME tablet, fasted, N = 5
[6] = human, in vivo, oral, single dose 450 mg, 75 mg HME tablet, fasted, N = 6
[7] = human, in vivo, oral, single dose 900 mg, 75 mg HME tablet, fasted, N = 6
[8] = single dose 150 mg, 75 mg HME tablet, fasted, N = 6
[9] = single dose 300 mg, 75 mg HME tablet, fasted, N = 5
[10] = single dose 450 mg, 75 mg HME tablet, fasted, N = 6
[11] = single dose 900 mg, 75 mg HME tablet, fasted, N = 6
[12] = 900 mg level, compared with Compound I administered alone
[13] = human, in vivo, oral, Compound I 900 mg single dose alone, Part B, HME, fasted, N = 10, geometric mean (% CV)
[14] = 300 mg level, compared with Compound I administered alone
[15] = human, in vivo, oral, Compound I 300 mg single dose alone, Part B, HME, fasted, N = 8, geometric mean (% CV)

- effect of added CYP inhibitor on metabolism of Compound I (CYP3A4): blocked the metabolism of Compound I
Structure (SMILES): Nn1nnc2ccccc21 [ABT]

- AUC(0-t) ([1]; human, in vivo, oral, 150 mg, single dose 150 mg, 75 mg HME tablet, fasted, N = 6, read-out: AUC0-12): 7240 ng·h/mL
- AUC(0-t) ([1]; human, in vivo, oral, 150 mg, single dose 150 mg, 75 mg HME tablet, fasted, N = 6, read-out: AUC0-24): 7720 ng·h/mL
- AUC(0-t) ([1]; human, in vivo, oral, 150 mg, single dose 150 mg, 75 mg HME tablet, fasted, N = 6, read-out: AUC0-t): 7870 ng·h/mL
- AUC(0-t) ([1]; human, in vivo, oral, 300 mg, single dose 300 mg, 75 mg HME tablet, fasted, N = 5, read-out: AUC0-12): 12100 ng·h/mL
- AUC(0-t) ([1]; human, in vivo, oral, 300 mg, single dose 300 mg, 75 mg HME tablet, fasted, N = 5, read-out: AUC0-24): 12600 ng·h/mL
- AUC(0-t) ([1]; human, in vivo, oral, 300 mg, single dose 300 mg, 75 mg HME tablet, fasted, N = 5, read-out: AUC0-t): 12900 ng·h/mL
- AUC(0-t) ([1]; human, in vivo, oral, 450 mg, single dose 450 mg, 75 mg HME tablet, fasted, N = 6, read-out: AUC0-12): 21000 ng·h/mL
- AUC(0-t) ([1]; human, in vivo, oral, 450 mg, single dose 450 mg, 75 mg HME tablet, fasted, N = 6, read-out: AUC0-24): 21800 ng·h/mL
- AUC(0-t) ([1]; human, in vivo, oral, 450 mg, single dose 450 mg, 75 mg HME tablet, fasted, N = 6, read-out: AUC0-t): 22100 ng·h/mL
- AUC(0-t) ([1]; human, in vivo, oral, 900 mg, single dose 900 mg, 75 mg HME tablet, fasted, N = 6, read-out: AUC0-12): 37500 ng·h/mL
- AUC(0-t) ([1]; human, in vivo, oral, 900 mg, single dose 900 mg, 75 mg HME tablet, fasted, N = 6, read-out: AUC0-24): 39200 ng·h/mL
- AUC(0-t) ([1]; human, in vivo, oral, 900 mg, single dose 900 mg, 75 mg HME tablet, fasted, N = 6, read-out: AUC0-t): 40000 ng·h/mL
- AUC(0-inf) [1, 4]: 7610 ng·h/mL
- Cmax [1, 4]: 2070 ng/mL
- half-life [1, 4]: 8.18 h
- Vd/F [1, 4]: 233 L
- Tmax ([1]; human, in vivo, oral, single dose 150 mg, 75 mg HME tablet, fasted, N = 6, read-out: tmax): 2 h
- AUC(0-inf) [1, 5]: 13200 ng·h/mL
- Cmax [1, 5]: 4180 ng/mL
- half-life [1, 5]: 9.56 h
- Vd/F [1, 5]: 313 L
- Tmax ([1]; human, in vivo, oral, single dose 300 mg, 75 mg HME tablet, fasted, N = 5, read-out: tmax): 2 h
- AUC(0-inf) [1, 6]: 22400 ng·h/mL
- Cmax [1, 6]: 7500 ng/mL
- half-life [1, 6]: 8.36 h
- Vd/F [1, 6]: 243 L
- Tmax ([1]; human, in vivo, oral, single dose 450 mg, 75 mg HME tablet, fasted, N = 6, read-out: tmax): 1 h
- AUC(0-inf) [1, 7]: 40400 ng·h/mL
- Cmax [1, 7]: 13300 ng/mL
- half-life [1, 7]: 9.12 h
- Vd/F [1, 7]: 293 L
- Tmax ([1]; human, in vivo, oral, single dose 900 mg, 75 mg HME tablet, fasted, N = 6, read-out: tmax): 1 h
- PK linearity ([1]; single ascending doses under fasted conditions): linear PK
- CL/F [1, 8]: 19.7 (46.9) L/hr
- t1/2 [1, 8]: 8.18 h
- CL/F [1, 9]: 22.7 (56.5) L/hr
- t1/2 [1, 9]: 9.56 h
- Tmax [1, 9]: 2.0 (1.0-2.0) hr
- CL/F [1, 10]: 20.1 (62.5) L/hr
- t1/2 [1, 10]: 8.36 h
- Tmax [1, 10]: 1.0 (1.0-2.0) hr
- CL/F [1, 11]: 22.3 (55.8) L/hr
- t1/2 [1, 11]: 9.12 h
- Tmax [1, 11]: 1.0 (1.0-2.0) hr
- increase of mean AUC0-t and AUC0-∞ with cobicistat co-administration [2, 12]: 3.8 fold
- increase of mean Cmax with cobicistat co-administration [2, 12]: 2.7 fold
- AUC(0-t) ([2]; human, in vivo, oral, 900 mg, Compound I 900 mg single dose alone, Part B, HME, fasted, N = 10, geometric mean (% CV)): 34800 ng·h/mL
- AUC(0-inf) [2, 13]: 35200 ng·h/mL
- Cmax [2, 13]: 11400 ng/mL
- half-life [2, 13]: 8.94 h
- Tmax ([2]; human, in vivo, oral, Compound I 900 mg single dose alone, Part B, HME, fasted, N = 10, median (minimum-maximum)): 2 h
- main cytochrome P450 enzyme responsible for metabolism (cytochrome P450 enzyme): CYP3A4
- increase of mean AUC0-t and AUC0-∞ with cobicistat co-administration [3, 14]: 2.6 fold
- increase of mean Cmax with cobicistat co-administration [3, 14]: 1.8 fold
- AUC(0-t) ([3]; human, in vivo, oral, 300 mg, Compound I 300 mg single dose alone, Part B, HME, fasted, N = 8, geometric mean (% CV), read-out: AUC0-24): 15800 ng·h/mL
- AUC(0-t) ([3]; human, in vivo, oral, 300 mg, Compound I 300 mg single dose alone, Part B, HME, fasted, N = 8, geometric mean (% CV), read-out: AUC0-t): 16200 ng·h/mL
- AUC(0-t) ([3]; human, in vivo, oral, 900 mg, Compound I 900 mg single dose alone, Part B, HME, fasted, N = 10, geometric mean (% CV), read-out: AUC0-24): 34100 ng·h/mL
- AUC(0-inf) [3, 15]: 16400 ng·h/mL
- Cmax [3, 15]: 4840 ng/mL
- half-life [3, 15]: 9.96 h
- Tmax ([3]; human, in vivo, oral, Compound I 300 mg single dose alone, Part B, HME, fasted, N = 8, median (minimum-maximum)): 2 h
Structure (SMILES): O=C(c1c(F)ccc(NS(=O)(=O)N2CC[C@@H](F)C2)c1F)c1c[nH]c2ncc(-c3cnc(C4CC4)nc3)cc12 [Compound I, (R)-N-(3-(5-(2-cyclopropylpyrimidin-5-yl)-1H-pyrrolo[2,3-b]pyridine-3-carbonyl)-2,4-difluorophenyl)-3-fluoropyrrolidine-1-sulfonamide]
- exposure (Cmax and AUC) versus dose ([1]; single dose 150 to 900 mg, 75 mg HME tablet, fasted): dose-proportional increase in exposure; also recorded: Exposure increased dose proportionally
